Series [1] is described as follows: Pharmacokinetics of cocaine and its metabolites (literature). The following applies: rat, in vivo, ip; i.p. cocaine, extrapolated.
In another series the test system is 5-HT release in NAcc. In words: In vivo microvoltammetry, 5-HT release in NAcc (clozapine studies). On the set-up: species or system Sprague-Dawley Rattus Norvegicus. On the procedure: (§1) There is an increasing awareness that a psychosis, similar to that of schizophrenic psychosis, can be derived from cocaine addiction. […] Release mechanisms for monoamines, were determined by using a depolarization blocker, gamma-butyrolactone (γBL). […] Acute and Subacute studies were performed for each treatment group.
(§2) The stereotaxic equipment was purchased from David Kopf Instruments, Tujunga, Calif. A Ag/AgCl reference electrode was placed in contact with dura, 7 mm anteriorally and contralaterally to the indicator microelectrode. A stainless steel auxiliary microelectrode was placed in contact with dura. BRODERICK PROBE® microelectrodes were manufactured on site.
(§3) In vivo microvoltammetric studies on conscious Sprague-Dawley laboratory rats were begun nine to fifteen days after the aseptic surgical operations were performed. On each experimental day, the animal was placed in a Plexiglas-copper faradaic chamber. The three-microelectrode assembly, enclosed within the animal's prosthetic acrylic cap, was connected to a CV37 detector by means of a mercury commutator (Br. Res. Instr., Princeton, N.J.), a flexible cable, and a mating connector (BJM Electronics, Staten Island, N.Y.). The CV37 detector was electrically connected to a Minigard surge suppresser (Jefferson Electric, Magnetek, N.Y.) which was then connected to an electrical ground in isolation. […] Each animal was used as its own control. Changes in synaptic concentrations of DA and 5-HT are presented as percent change (% of control) in order to minimize normal between-animal variations. […] In vivo microvoltammetric scans were recorded in sec and repeated every five min for a period of 2 hrs before each treatment and a period of two hrs after each treatment.
(§4) Potentials were applied with a CV37 detector (BAS, West Lafayette, Ind.). Potentials were applied from −0.2V to +0.4V with respect to a Ag/AgCl (1M NaCl) electrode, at a scan rate of 10 mV/sec at time constants of 5 and 1 tau. One scan was completed in 60 sec. Non-faradaic charging current was eliminated in the first 25 sec.
(§5) Calibration curves were determined experimentally, in vitro, in a freshly prepared deoxygenated physiological saline-phosphate buffer solution (0.01 M, pH=7.4). We use ultra pure Nitrogen (N2) (T. W. Smith Corp., Bklyn, N.Y.) to deoxygenate the buffer solution. […] Calibration studies were also performed in freshly prepared deoxygenated buffer solutions containing phosphotidylethanolamine (PEA), combined with bovine serum albumin (BSA) (Sigma Aldrich, St. Louis, Mo.), a solution which closely mimics brain constituents. […] Detection limits for basal synaptic concentrations of DA and 5-HT in NAcc were 12 nM and 2 nM respectively.

For a further series, the system named is DA release in NAcc. Briefly: In vivo microvoltammetry, DA release in NAcc (clozapine studies). Set-up: species or system Sprague-Dawley Rattus Norvegicus. The following applies: Subacute, cocaine 10 mg/kg i.p. on Day 1, hr period of study. As to the method: as §1, §2, §3, §4, §5

Structures are written as SMILES.

For `COC(=O)[C@H]1[C@@H](OC(=O)c2ccccc2)C[C@@H]2CC[C@H]1N2C` [Cocaine, cocaine], the half-life in series [1] is about 2 h. Further, the “Maximum decrease in 5-HT below baseline, Subacute” value in the series on 5-HT release in NAcc (24 hr after cocaine 10 mg/kg i.p.) is recorded as 40%. Moreover, in the series on 5-HT release in NAcc (Subacute, cocaine 10 mg/kg i.p. on Day 1, second half hour of the study), the “Decrease in 5-HT release on Day 2 compared to drug effect on Day1” value is “approximately 150%”. Also, in the series on DA release in NAcc, the “Decrease in DA release on Day 2 compared to drug effect on Day 1” value is listed as “about 80%”.

The term half-life denotes the time in which the quantity being followed falls by half.

Values taken from patent US20070270403A1 (priority 2003, published 2007).
